The source of these data is publication PMC13576449, “Small-Molecule Activators of PRMT1: Discovery, SAR Analyses, and Proapoptotic Effects in Pancreatic Cancer Cells” (Journal of Medicinal Chemistry, 2026).

Each structure is given as a SMILES string.

In this assay the test system is ADMA in PANC-1 xenograft tissues. Put plainly: Immunofluorescence staining of ADMA in xenograft tumor tissue. In kind it is in vivo, mouse. The settings on record: after 2 weeks treatment, compared to PBS or gemcitabine alone. Here is the method:
6 Effect of small-molecule modulators on gemcitabine-induced apoptosis and tumor growth of PDAC cells. […] After 2 h, gemcitabine (GEM) was added at increasing concentrations (10 and 25 nM) or not (−) for another incubation of 72 h. Subsequently, the luminescence-based caspase3/7 assay was performed. The activity of caspase 3/7 in treated cells was normalized to the activity measured in untreated cells (dark gray bar), which was set to 1 (mean SD, n = 6 for PANC-1 and n = 4 for PaTu8988T; *: p ≤ 0.05, **: p ≤ 0.01, ***: p ≤ 0.001, using the student t-test). […] After 24 h, gemcitabine (GEM, 1 μM) was added (+) or not (−) for another incubation of 48 h. Subsequently, the apoptotic cell fraction was quantified in % by flow cytometry using FITC-labeled Annexin V (AV) and propidium iodide (PI) staining (in B: mean ± SD, n = 6 for PANC-1 and n = 5 for PaTu8988T; **: p ≤ 0.01, ***: p ≤ 0.001, ****: p ≤ 0.0001, using the student t-test). […] Tumor volumes were measured every second day using a digital caliper. […]
For antigen retrieval, tissue sections were steam-heated for 35 min in citrate buffer (pH 6.0), cooled down to room temperature, and then washed in PBS. […] Fluorescence images were acquired using the Confocal Laser Scanning microscope Leica SP8i and analyzed with IMARIS 9.9.0 (Bitplane-Oxford Instruments, Abingdon, GB) using the Cell module.

`CN(C)Cc1cccc(CN/C=C2\C(=O)NC(=O)c3ccccc32)c1.Cl` [TR-07, (Z)-1-[3-({[(1,3-Dioxo-2,3-dihydroisoquinolin-4(1H)-lidene)methyl]amino}methyl)phenyl]-N,N-dimethylmethanaminium chloride]: the “mean intensity ADMA levels in PANC-1 xenografts (IF staining)” value is “elevated mean intensity ADMA levels”.
